Laboratory results: patent US12545640B2, “Substituted 6,7-dihydro-5H-benzo[7]annulene compounds, processes for their preparation and therapeutic uses thereof” (SANOFI, priority 2019, dated 2026)

Target: T1, ERα (Homo sapiens, UniProt P03372)
T1 construct: host or cells: MCF7 cells
T1 sequence (P03372 1-595): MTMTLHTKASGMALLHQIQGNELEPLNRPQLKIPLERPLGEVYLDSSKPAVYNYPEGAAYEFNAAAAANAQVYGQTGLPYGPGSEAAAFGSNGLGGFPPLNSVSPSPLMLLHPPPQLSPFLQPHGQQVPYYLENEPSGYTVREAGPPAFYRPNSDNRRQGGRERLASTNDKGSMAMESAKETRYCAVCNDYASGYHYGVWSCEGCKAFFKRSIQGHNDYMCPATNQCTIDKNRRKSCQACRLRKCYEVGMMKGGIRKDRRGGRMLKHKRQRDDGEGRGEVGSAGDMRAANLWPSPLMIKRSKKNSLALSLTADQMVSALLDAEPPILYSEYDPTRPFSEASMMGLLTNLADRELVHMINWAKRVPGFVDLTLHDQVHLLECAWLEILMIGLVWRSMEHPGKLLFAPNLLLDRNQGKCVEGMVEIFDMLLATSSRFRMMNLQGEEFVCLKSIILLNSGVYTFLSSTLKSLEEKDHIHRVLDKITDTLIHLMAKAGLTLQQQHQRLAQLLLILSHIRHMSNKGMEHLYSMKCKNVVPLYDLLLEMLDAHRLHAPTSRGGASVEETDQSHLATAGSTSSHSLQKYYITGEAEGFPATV
Assay: Estrogen receptor degradation activity: breast cancer cell ERα in cell western assay (MCF7 cells)
Assay type: cell-based
Details: 4 hours, final concentrations ranging from 3-0.000018 μM, relative to fulvestrant 0.1 μM positive control
Protocol: Test: Estrogen Receptor Degradation Activity
Said test involves measuring the in vitro degradation activity of the compounds of the invention.
The measurements of the degradation activities were made using a breast cancer cell ERα in cell western assay as described hereunder.
MCF7 cells (ATCC) were seeded in 384 wells microplate (collagen coated) at a concentration of 10000 cells/30 μL, per well in red phenol free MEM alpha medium (invitrogen) containing 5% charcoal dextran striped FBS. The following day, 9 points serial 1:5 dilution of each compound was added to the cells in 2.5 μL at final concentrations ranging either from 3-0.000018 μM (column «% Degradation at 3 μM in table 2) or from 0.3-0.0000018 μM (column «% Degradation at 0.3 μM in table 2), or 0.1 μM for fulvestrant (using as positive control). At 4 hours post compound addition the cells were fixed by adding 25 μL of formalin (final concentration 5% formalin containing 0.1% triton) for 10 minutes at room temperature and then washed twice with PBS. Then, 50 μL of LI-COR blocking buffer containing 0.1% Triton was added to plate for 30 minutes at room temperature. LI-COR blocking buffer was removed and cells were incubated overnight at cold room with 50 μL anti-ER rabbit monoclonal antibody (Thermo scientific MA1-39540) diluted at 1:1000 in LI-COR blocking buffer containing 0.1% tween-20. Wells which were treated with blocking buffer but no antibody were used as background control. Wells were washed twice with PBS (0.1% tween-20) and incubated at 37° C. for 60 minutes in LI-COR (0.1% tween-20) containing goat anti-rabbit antibody Alexa 488 (1:1000) and Syto-64 a DNA dye ([…]). Cells were then washed 3 times in PBS and scanned in ACUMEN explorer (TTP-Labtech). Integrated intensities in the green fluorescence and red fluorescence were measured to determine the levels of ERα and DNA respectively.

Structure (SMILES)	% Degradation At 3 μM [%]
CC1(C)OB(c2ccc3c(c2)CCCC(c2ccc(Cl)cc2Cl)=C3c2ccc(O[C@H]3CCN(CCCF)C3)cc2)OC1(C)C [Example 1, (S)-3-(4-(8-(2,4-dichlorophenyl)-3-(4,4,5,5-tetramethyl-1,3,2-dioxaborolan-2-yl)-6,7-dihydro-5H-benzo[7]annulen-9-yl)phenoxy)-1-(3-fluoropropyl)pyrrolidine]	86
OC(c1ccc2c(c1)CCCC(c1ccc(Cl)cc1Cl)=C2c1ccc(O[C@H]2CCN(CCCF)C2)cc1)C(F)F (stereo partly drawn) [Example 5, 1-(8-(2,4-dichlorophenyl)-9-(4-(((S)-1-(3-fluoropropyl)pyrrolidin-3-yl)oxy)phenyl)-6,7-dihydro-5H-benzo[7]annulen-3-yl)-2,2-difluoroethan-1-ol]	93
NNC(=O)c1ccc2c(c1)CCCC(c1ccc(Cl)cc1Cl)=C2c1ccc(O[C@H]2CCN(CCCF)C2)cc1 [Example 6, (S)-8-(2,4-dichlorophenyl)-9-(4-((1-(3-fluoropropyl)pyrrolidin-3-yl)oxy)phenyl)-6,7-dihydro-5H-benzo[7]annulene-3-carbohydrazide]	88
OC(c1ccc2c(c1)CCCC(c1ccc(Cl)cc1Cl)=C2c1ccc(O[C@H]2CCN(CCCF)C2)cc1)C(F)(F)F (stereo partly drawn) [Example 10, 1-(8-(2,4-dichlorophenyl)-9-(4-(((S)-1-(3-fluoropropyl)pyrrolidin-3-yl)oxy)phenyl)-6,7-dihydro-5H-benzo[7]annulen-3-yl)-2,2,2-trifluoroethan-1-ol]	92
O=c1cc(-c2ccc3c(c2)CCCC(c2ccc(Cl)cc2Cl)=C3c2ccc(O[C@H]3CCN(CCCF)C3)cc2)[nH][nH]1 [Example 12, (S)-5-(8-(2,4-dichlorophenyl)-9-(4-((1-(3-fluoropropyl)pyrrolidin-3-yl)oxy)phenyl)-6,7-dihydro-5H-benzo[7]annulen-3-yl)-1,2-dihydro-3H-pyrazol-3-one]	83
O=C1CC(c2ccc3c(c2)CCCC(c2ccc(Cl)cc2Cl)=C3c2ccc(O[C@H]3CCN(CCCF)C3)cc2)=NO1 [Example 13, (S)-3-(8-(2,4-dichlorophenyl)-9-(4-((1-(3-fluoropropyl)pyrrolidin-3-yl)oxy)phenyl)-6,7-dihydro-5H-benzo[7]annulen-3-yl)isoxazol-5(4H)-one]	76
NC(=O)NNC(=O)c1ccc2c(c1)CCCC(c1ccc(Cl)cc1Cl)=C2c1ccc(O[C@H]2CCN(CCCF)C2)cc1 [Example 14, (S)-2-(8-(2,4-dichlorophenyl)-9-(4-((1-(3-fluoropropyl)pyrrolidin-3-yl)oxy)phenyl)-6,7-dihydro-5H-benzo[7]annulene-3-carbonyl)hydrazine-1-carboxamide]	90
CS(=O)(=O)NC(=O)c1ccc2c(c1)CCCC(c1ccc(Cl)cc1Cl)=C2c1ccc(O[C@H]2CCN(CCCF)C2)cc1 [Example 15, (S)-8-(2,4-dichlorophenyl)-9-(4-((1-(3-fluoropropyl)pyrrolidin-3-yl)oxy)phenyl)-(methylsulfonyl)-6,7-dihydro-5H-benzo[7]annulene-3-carboxamide]	90
O=C(Nc1nn[nH]n1)c1ccc2c(c1)CCCC(c1ccc(Cl)cc1Cl)=C2c1ccc(O[C@H]2CCN(CCCF)C2)cc1 [Example 17, (S)-8-(2,4-dichlorophenyl)-9-(4-((1-(3-fluoropropyl)pyrrolidin-3-yl)oxy)phenyl)-N-(2H-tetrazol-5-yl)-6,7-dihydro-5H-benzo[7]annulene-3-carboxamide]	84
O=C(NO)c1ccc2c(c1)CCCC(c1ccc(Cl)cc1Cl)=C2c1ccc(O[C@H]2CCN(CCCF)C2)cc1 [Example 18, (S)-8-(2,4-dichlorophenyl)-9-(4-((1-(3-fluoropropyl)pyrrolidin-3-yl)oxy)phenyl)-N-hydroxy-6,7-dihydro-5H-benzo[7]annulene-3-carboxamide]	85
CONC(=O)c1ccc2c(c1)CCCC(c1ccc(Cl)cc1Cl)=C2c1ccc(O[C@H]2CCN(CCCF)C2)cc1 [Example 19, (S)-8-(2,4-dichlorophenyl)-9-(4-((1-(3-fluoropropyl)pyrrolidin-3-yl)oxy)phenyl)-N-methoxy-6,7-dihydro-5H-benzo[7]annulene-3-carboxamide]	86
O=C(O)/C=C/c1ccc2c(c1)CCCC(c1ccc(Cl)cc1Cl)=C2c1ccc(O[C@H]2CCN(CCCF)C2)cc1 [Example 20, (S,E)-3-(8-(2,4-dichlorophenyl)-9-(4-((1-(3-fluoropropyl)pyrrolidin-3-yl)oxy)phenyl)-6,7-dihydro-5H-benzo[7]annulen-3-yl)acrylic acid]	85
FCCCN1CC[C@H](Oc2ccc(C3=C(c4ccc(OC(F)(F)F)cc4)CCCc4cc(-c5cn[nH]c5)ccc43)cc2)C1 [Example 23, (S)-4-(9-(4-((1-(3-fluoropropyl)pyrrolidin-3-yl)oxy)phenyl)-8-(4-(trifluoromethoxy)phenyl)-6,7-dihydro-5H-benzo[7]annulen-3-yl)-1H-pyrazole]	74
FCCCN1CC[C@H](Oc2ccc(C3=C(c4ccc(OC(F)(F)F)cc4)CCCc4cc(OC(F)F)ccc43)cc2)C1 [Example 24, (S)-3-(4-(3-(difluoromethoxy)-8-(4-(trifluoromethoxy)phenyl)-6,7-dihydro-5H-benzo[7]annulen-9-yl)phenoxy)-1-(3-fluoropropyl)pyrrolidine]	74

Other lines, results leading:

% Degradation At 3 μM [%]	Structure (SMILES)
95	NC(=O)c1ccc2c(c1)CCCC(c1ccc(Cl)cc1Cl)=C2c1ccc(O[C@H]2CCN(CCCF)C2)cc1 [Example 3, (S)-8-(2,4-dichlorophenyl)-9-(4-((1-(3-fluoropropyl)pyrrolidin-3-yl)oxy)phenyl)-6,7-dihydro-5H-benzo[7]annulene-3-carboxamide]
87	Oc1cc(-c2ccc3c(c2)CCCC(c2ccc(Cl)cc2Cl)=C3c2ccc(O[C@H]3CCN(CCCF)C3)cc2)on1 [Example 4, (S)-5-(8-(2,4-dichlorophenyl)-9-(4-((1-(3-fluoropropyl)pyrrolidin-3-yl)oxy)phenyl)-6,7-dihydro-5H-benzo[7]annulen-3-yl)isoxazol-3-ol]
86	FCCCN1CC[C@H](Oc2ccc(C3=C(c4ccc(Cl)cc4Cl)CCCc4cc(-c5nnco5)ccc43)cc2)C1 [Example 7, (S)-2-(8-(2,4-dichlorophenyl)-9-(4-((1-(3-fluoropropyl)pyrrolidin-3-yl)oxy)phenyl)-6,7-dihydro-5H-benzo[7]annulen-3-yl)-1,3,4-oxadiazole]
79	FCCCN1CC[C@H](Oc2ccc(C3=C(c4ccc(Cl)cc4Cl)CCCc4cc(-c5nncs5)ccc43)cc2)C1 [Example 9, (S)-2-(8-(2,4-dichlorophenyl)-9-(4-((1-(3-fluoropropyl)pyrrolidin-3-yl)oxy)phenyl)-6,7-dihydro-5H-benzo[7]annulen-3-yl)-1,3,4-thiadiazole]
86	FCCCN1CC[C@H](Oc2ccc(C3=C(c4ccc(Cl)cc4Cl)CCCc4cc(-c5nn[nH]n5)ccc43)cc2)C1 [Example 16, (S)-5-(8-(2,4-dichlorophenyl)-9-(4-((1-(3-fluoropropyl)pyrrolidin-3-yl)oxy)phenyl)-6,7-dihydro-5H-benzo[7]annulen-3-yl)-2H-tetrazole]
78	FCCCN1CC[C@H](Oc2ccc(C3=C(c4ccc(Cl)cc4Cl)CCCc4cc(-c5cn[nH]c5)ccc43)cc2)C1 [Example 21, (S)-4-(8-(2,4-dichlorophenyl)-9-(4-((1-(3-fluoropropyl)pyrrolidin-3-yl)oxy)phenyl)-6,7-dihydro-5H-benzo[7]annulen-3-yl)-1H-pyrazole]
82	N#Cc1ccc2c(c1)CCCC(c1ccc(Cl)cc1Cl)=C2c1ccc(O[C@H]2CCN(CCCF)C2)cc1 [Example 22, (S)-8-(2,4-dichlorophenyl)-9-(4-((1-(3-fluoropropyl)pyrrolidin-3-yl)oxy)phenyl)-6,7-dihydro-5H-benzo[7]annulene-3-carbonitrile]
